Measured values published in PubChem BioAssay (NCI).
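Protocol summary: plate cells (96-well), add compound at 5 concentrations, incubate 48 h, interpolate endpoints linearly. The concentration for full growth arrest is given as TGI.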

Columns and labels:
Assay in all cases: NCI-60 cell line screen, 48 h
786-0 renal = test system: 786-0 renal
A498 renal = test system: A498 renal
A549 NSCLC = test system: A549 NSCLC
ACHN renal = test system: ACHN renal
BT-549 breast = test system: BT-549 breast
CAKI-1 renal = test system: CAKI-1 renal
CCRF-CEM leukemia = test system: CCRF-CEM leukemia
COLO 205 colon = test system: COLO 205 colon
DU-145 prostate = test system: DU-145 prostate
EKVX NSCLC = test system: EKVX NSCLC
HCC-2998 colon = test system: HCC-2998 colon
HCT-116 colon = test system: HCT-116 colon
HCT-15 colon = test system: HCT-15 colon
HL-60(TB) leukemia = test system: HL-60(TB) leukemia
HOP-62 NSCLC = test system: HOP-62 NSCLC
HS 578T breast = test system: HS 578T breast
HT29 colon = test system: HT29 colon
IGROV1 ovarian = test system: IGROV1 ovarian
K-562 leukemia = test system: K-562 leukemia
KM12 colon = test system: KM12 colon
LOX IMVI melanoma = test system: LOX IMVI melanoma
M14 melanoma = test system: M14 melanoma
MALME-3M melanoma = test system: MALME-3M melanoma
MCF7 breast = test system: MCF7 breast
MDA-MB-231 breast = test system: MDA-MB-231 breast
MDA-MB-435 = test system: MDA-MB-435
MDA-N = test system: MDA-N
MOLT-4 leukemia = test system: MOLT-4 leukemia
NCI-H226 lung = test system: NCI-H226 lung
NCI-H23 lung = test system: NCI-H23 lung
NCI-H460 lung = test system: NCI-H460 lung
NCI-H522 lung = test system: NCI-H522 lung
NCI/ADR-RES ovarian = test system: NCI/ADR-RES ovarian
OVCAR-3 ovarian = test system: OVCAR-3 ovarian
OVCAR-5 ovarian = test system: OVCAR-5 ovarian
OVCAR-8 ovarian = test system: OVCAR-8 ovarian
PC-3 prostate = test system: PC-3 prostate
RPMI-8226 leukemia = test system: RPMI-8226 leukemia
SF-268 CNS = test system: SF-268 CNS
SF-295 CNS = test system: SF-295 CNS
SF-539 CNS = test system: SF-539 CNS
SK-MEL-2 melanoma = test system: SK-MEL-2 melanoma
SK-MEL-28 melanoma = test system: SK-MEL-28 melanoma
SK-MEL-5 melanoma = test system: SK-MEL-5 melanoma
SK-OV-3 ovarian = test system: SK-OV-3 ovarian
SN12C renal = test system: SN12C renal
SNB-19 CNS = test system: SNB-19 CNS
SNB-75 CNS = test system: SNB-75 CNS
SR leukemia = test system: SR leukemia
SW-620 colon = test system: SW-620 colon
T-47D breast = test system: T-47D breast
TK-10 renal = test system: TK-10 renal
U251 CNS = test system: U251 CNS
UACC-257 melanoma = test system: UACC-257 melanoma
UACC-62 melanoma = test system: UACC-62 melanoma
UO-31 renal = test system: UO-31 renal
OVCAR-4 ovarian = test system: OVCAR-4 ovarian
RXF 393 renal = test system: RXF 393 renal

Measured: TGI

O=c1c2ccccc2c2c1c1c3ccccc3c(=O)c1c1c3ccccc3c(=O)c21
not listed: OVCAR-4 ovarian | RXF 393 renal
> 100 µM: all other assays above

CC(C)c1ccc2c(c1)C=C1OC(=O)[C@]3(C)CCC[C@@]2(C)C13 (some centres undefined)
not listed: A498 renal | LOX IMVI melanoma | MALME-3M melanoma | OVCAR-5 ovarian | SK-MEL-2 melanoma
> 100 µM: all other assays above
